# From patent US10316017B2, “COT modulators and methods of use thereof” (Gilead Sciences, Inc., priority 2015, dated 2019)
# What was measured:
# [1] = biological target: T1, human Cot catalytic domain (30-397 amino acids) (Homo sapiens, UniProt P41279); experiment: High Throughput Cot Biochemical Assay (KinEASE TR-FRET); conditions: Cot KinEASE TR-FRET (HTRF) biochemical assay, 400 μM ATP; read-out: IC50 HTRF
# T1 construct: Purified recombinant human Cot catalytic domain (30-397 amino acids) was purchased from Cama Biosciences; purchased Cama Biosciences (so in the source)
# T1 sequence (P41279 30-397): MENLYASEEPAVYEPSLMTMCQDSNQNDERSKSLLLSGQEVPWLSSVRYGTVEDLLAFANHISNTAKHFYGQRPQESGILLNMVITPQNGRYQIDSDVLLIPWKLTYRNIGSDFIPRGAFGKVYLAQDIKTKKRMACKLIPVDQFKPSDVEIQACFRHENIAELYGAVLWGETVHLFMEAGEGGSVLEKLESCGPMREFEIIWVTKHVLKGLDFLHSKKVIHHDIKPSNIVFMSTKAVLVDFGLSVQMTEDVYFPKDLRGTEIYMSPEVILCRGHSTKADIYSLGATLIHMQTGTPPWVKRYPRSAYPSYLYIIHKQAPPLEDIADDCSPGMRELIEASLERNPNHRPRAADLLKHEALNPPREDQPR
# Outline: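 Phosphorylation of 1 μM XL665-STK3 peptide by 5 nM Cot catalytic domain was measured by time-resolved FRET using a europium […] antibody. ATP was 400 μM; buffer was 10 mM MOPS pH 7.0 with Mg2+ and DTT.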
# [2] = test system: TNFα production in LPS-stimulated human monocytes; experiment: Cot Monocyte TNFα Cell Based Assay; conditions: Homo sapiens, Monocyte, TNFα in LPS-stimulated human monocytes; read-out: EC50 TNF
# Outline: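 Percent-of-control values derive from TR-FRET ratios of TNFα in spun-down media, referenced to unstimulated and LPS-stimulated wells. Exposure: 1 h compound preincubation, then 50 pg/ml LPS for 4 h, both at 37 °C, with 0.5% final DMSO.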
IC50 [1] [µM],EC50 [2] [µM],Compound
0.199,1.97,"[2H]C(Nc1cc(Cl)c2ncc(C#N)c(N[C@H](CC)c3ccccc3)c2c1)(c1ccccc1Cl)c1nn[nH]c1C (stereo partly drawn) [Example 326, 8-chloro-6-(((2-chlorophenyl) (5-methyl-1H-1,2,3-triazol-4-yl)methyl-d)amino)-4-(((R)-1-phenylpropyl)amino)quinoline-3-carbonitrile]"
0.004,0.166,"[2H][C@](Nc1cc(Cl)c2ncc(C#N)c(NCC(C)(C)C)c2c1)(c1cccc(C#N)c1)c1cn(-c2cccnc2)nn1 [Example 327, (S)-8-chloro-6-(((3-cyanophenyl)(1-(pyridin-3-yl)-1H-1,2,3-triazo1-4-yl)methyl-d)amino)-4-(neopentylamino)quinoline-3-carbonitrile]"
0.024,1.24,"N#Cc1ccccc1[C@H](Nc1cc(Cl)c2ncc(C#N)c(Nc3cnc(F)c(F)c3)c2c1)c1c[nH]nn1 [Example 328, (S)-8-chloro-6-(((2-cyanophenyl)(1H-1,2,3-triazol-4-yl)methyl)amino)-4-((5,6-difluoropyridin-3-yl)amino)quinoline-3-carbonitrile]"
0.032,0.808,"[2H][C@](Nc1cc(Cl)c2ncc(C#N)c(Nc3cnc(F)c(F)c3)c2c1)(c1ccc(F)cc1)c1cn(Cc2c(F)cccc2F)nn1 [Example 329, (S)-8-chloro-6-(((1-(2,6-difluorobenzyl)-1H-1,2,3-triazol-4-yl)(4-fluorophenyl)methyl-d)amino)-4-((5,6-difluoropyridin-3-yl)amino)quinoline-3-carbonitrile]"
1.42,> 10,"[2H][C@](Nc1cc(Cl)c2ncc(C#N)c(Nc3cnc(F)c(F)c3)c2c1)(c1ccc(F)cc1)c1cnn(CF)n1 [Example 330, (S)-8-chloro-4-((5,6-difluoropyridin-3-yl)amino)-6-(((2-(fluoromethyl)-2H-1,2,3-triazol-4-yl)(4-fluorophenyl)methyl-d)amino)quinoline-3-carbonitrile]"
0.004,0.075,"[2H][C@](Nc1cc(Cl)c2ncc(C#N)c(N[C@H](CC#N)c3ccccc3)c2c1)(c1ccc(F)cc1)c1cn(C2CC2)nn1 [Example 331, 8-chloro-4-(((R)-2-cyano-1-phenylethyl)amino)-6-(((S)-(1-cyclopropyl-1H-1,2,3-triazol-4-yl)(4-fluorophenyl)methyl-d)amino)quinoline-3-carbonitrile]"
0.009,0.26,"[2H][C@](Nc1cc(Cl)c2ncc(C#N)c(NCC3(C)CCOCC3)c2c1)(c1ccc(F)cc1)c1cn(C2CC2)nn1 [Example 333, (S)-8-chloro-6-(((1-cyclopropyl-1H-1,2,3-triazol-4-yl)(4-fluorophenyl)methyl-d)amino)-4-(((4-methyltetrahydro-2H-pyran-4-yl)methyl)amino) quinoline-3-carbonitrile]"
0.258,> 10,"[2H][C@](Nc1cc(Cl)c2ncc(C#N)c(N[C@@H](CC#N)c3ccccc3)c2c1)(c1ccc(F)cc1)c1cn(C2CC2)nn1 [Example 334, 8-chloro-4-(((S)-2-cyano-1-phenylethyl)amino)-6-(((S)-(1-cyclopropyl-1H-1,2,3-triazol-4-yl)(4-fluorophenyl)methyl-d)amino)quinoline-3-carbonitrile]"
0.04,0.204,"[2H][C@](Nc1cc(Cl)c2ncc(C#N)c(NCC(C)(C)C)c2c1)(c1ccc(F)cc1)c1cn(-c2cccnc2)nn1 [Example 335, (S)-8-chloro-6-(((4-fluorophenyl)(1-(pyridin-3-yl)-1H-1,2,3-triazol-4-yl)methyl-d)amino)-4-(neopentylamino)quinoline-3-carbonitrile]"
0.071,0.619,"N#Cc1cnc2c(Cl)cc(N[C@@H](c3ccc(F)cc3)c3cn(-c4ccccc4C(F)(F)F)nn3)cc2c1Nc1cnc(F)c(F)c1 [Example 336, (S)-8-chloro-4-((5,6-difluoropyridin-3-yl)amino)-6-(((4-fluorophenyl)(1-(2-(trifluoromethyl)phenyl)-1H-1,2,3-triazol-4-yl)methyl)amino)quinoline-3-carbonitrile]"
0.049,0.674,"N#Cc1cnc2c(Cl)cc(N[C@@H](c3ccc(F)cc3)c3cn(-c4ccccc4F)nn3)cc2c1Nc1cnc(F)c(F)c1 [Example 337, (S)-8-chloro-4-((5,6-difluoropyridin-3-yl)amino)-6-(((4-fluorophenyl) (1-(2-fluorophenyl)-1H-1,2,3-triazol-4-yl)methyl)amino)quinoline-3-carbonitrile]"
0.008,0.183,"[2H][C@](Nc1cc(Cl)c2ncc(C#N)c(Nc3cnc(F)c(Cl)c3)c2c1)(c1ccc(F)cc1)c1cn(C2CC2)nn1 [Example 338, (S)-8-chloro-4-((5-chloro-6-fluoropyridin-3-yl)amino)-6-(((1-cyclopropyl-1H-1,2,3-triazol-4-yl)(4-fluorophenyl)methyl-d)amino)quinoline-3-carbonitrile]"
0.055,1.17,"[2H][C@](Nc1cc(Cl)c2ncc(C#N)c(Nc3cncc(F)c3)c2c1)(c1ccc(F)cc1)c1cn(C(C)C)nn1 [Example 339, (S)-8-chloro-6-(((4-fluorophenyl)(1-isopropyl-1H-1,2,3-triazol-4-yl)methyl-d)amino)-4-((5-fluoropyridin-3-yl)amino)quinoline-3-carbonitrile]"
0.002,0.057,"[2H][C@](Nc1cc(Cl)c2ncc(C#N)c(N[C@H](CC)c3ccccc3)c2c1)(c1cccc(C#N)c1)c1cn(C2CC2)nn1 [Example 340, 8-chloro-6-(((S)-(3-cyanophenyl)(1-cyclopropyl-1H-1,2,3-triazol-4-yl)methyl-d)amino)-4-(((R)-1-phenylpropyl)amino)quinoline-3-carbonitrile]"
0.001,0.071,"[2H][C@](Nc1cc(Cl)c2ncc(C#N)c(NCC(C)(C)C)c2c1)(c1cccc(C#N)c1)c1cn(C2CC2)nn1 [Example 341, (S)-8-chloro-6-(((3-cyanophenyl)(1-cyclopropyl-1H-1,2,3-triazol-4-yl)methyl-d)amino)-4-(neopentylamino)quinoline-3-carbonitrile]"
0.064,1.23,"[2H][C@](Nc1cc(Cl)c2ncc(C#N)c(Nc3cnc(F)c(F)c3)c2c1)(c1ccc(F)cc1)c1cn(Cc2ccccc2)nn1 [Example 342, (S)-6-(((1-benzyl-1H-1,2,3-triazol-4-yl)(4-fluorophenyl)methyl-d)amino)-8-chloro-4-((5,6-difluoropyridin-3-yl)amino)quinoline-3-carbonitrile]"
0.013,0.151,"[2H][C@@](Nc1cc(Cl)c2ncc(C#N)c(NCC(C)(C)C)c2c1)(c1cn(C2CC2)nn1)c1ccccc1Cl [Example 343, (S)-8-chloro-6-(((2-chlorophenyl)(1-cyclopropyl-1H-1,2,3-triazol-4-yl)methyl-d)amino)-4-(neopentylamino) quinoline-3-carbonitrile]"
0.089,2.23,"[2H]C(Nc1cc(Cl)c2ncc(C#N)c(NCC(C)(C)C)c2c1)(c1ccc(F)cc1)c1cn(C2CC2)cn1 (stereo not shown) [Example 344, 8-chloro-6-(((1-cyclopropyl-1H-imidazol-4-yl)(4-fluorophenyl)methyl-d)amino)-4-(neopentylamino) quinoline-3-carbonitrile]"
0.057,0.976,"CC(C)CNc1c(C#N)cnc2c(Cl)cc(N[C@@H](c3ccc(F)cc3)c3cn(C4CC4)nn3)cc12 [Example 345, (S)-8-chloro-6-(((1-cyclopropyl-1H-1,2,3-triazol-4-yl)(4-fluorophenyl)methyl)amino)-4-(isobutylamino)quinoline-3-carbonitrile]"
0.338,6.1,"N#Cc1cnc2c(Cl)cc(N[C@@H](c3ccc(F)cc3)c3cn(C4CC4)nn3)cc2c1NCc1cncs1 [Example 346, (S)-8-chloro-6-(((1-cyclopropyl-1H-1,2,3-triazol-4-yl)(4-fluorophenyl)methyl)amino)-4-((thiazol-5-ylmethyl)amino)quinoline-3-carbonitrile]"
0.024,0.773,"N#Cc1cnc2c(Cl)cc(N[C@@H](c3ccc(F)cc3)c3cn(C4CC4)nn3)cc2c1NC(CC(F)(F)F)c1ccccc1 (stereo partly drawn) [Example 347, 8-chloro-6-(((S)-(1-cyclopropyl-1H-1,2,3-triazol-4-yl)(4-fluorophenyl)methyl)amino)-4-((3,3,3-trifluoro-1-phenylpropyl)amino)quinoline-3-carbonitrile]"
0.044,1.2,"N#Cc1cnc2c(Cl)cc(N[C@@H](c3ccc(F)cc3)c3cn(C4CC4)nn3)cc2c1NCC1CCCOC1 (stereo partly drawn) [Example 348, 8-chloro-6-(((S)-(1-cyclopropyl-1H-1,2,3-triazol-4-yl)(4-fluorophenyl)methyl)amino)-4-(((tetrahydro-2H-pyran-3-yl)methyl)amino)quinoline-3-carbonitrile]"
0.131,0.687,"CC(F)(F)CNc1c(C#N)cnc2c(Cl)cc(N[C@@H](c3ccc(F)cc3)c3cn(C4CC4)nn3)cc12 [Example 349, (S)-8-chloro-6-(((1-cyclopropyl-1H-1,2,3-triazol-4-yl)(4-fluorophenyl)methyl)amino)-4-((2,2-difluoropropyl)amino)quinoline-3-carbonitrile]"
